What was measured:
[1] = test system: HaCaT keratinocytes; assay: Proliferation of HaCaT keratinocytes (Cell Titer Viability Assay, luminescence); assay type: cell-based; conditions: 48 hours; for inhibition of proliferation of keratinocytes: comparable to negative control
Description: As further control cells were used, which were only incubated in KBM (KBM).
For this purpose 5×10^3 HaCaT keratinocytes were seeded into 60 wells of a 96 well-plate in 200 μl KBM/10% FCS each and incubated for 24 hours at 37° C. […] At the end of the second incubation period the medium was removed and the proliferation of cells was determined with the Cell Titer Viability Assay of Promega (#G7571/G7572) according to the manufacturer's instructions. A lowered luminescence with respect to the positive control (in RLU relative luminescence units) correlated with a lowered proliferation. Values obtained from the wells without cells were subtracted from the mean of the 6 wells with cells as background value. At least 4 independent experiments were carried out.

[2] = administration of up to 100 mg, therapy of lateral sclerosis; cited from earlier work

## Nc1nc2ccc(OC(F)(F)F)cc2s1 [Riluzole, 2-amino-6-(trifluoromethoxy)-benzothiazole]
[1]; 100 μmol/l Riluzole
  inhibition of proliferation of keratinocytes: complete inhibition of proliferation
[1]; 250 μmol/l Riluzole
  inhibition of proliferation of keratinocytes: complete inhibition of proliferation
[1]; HaCaT keratinocytes, versus control KBM+10% FCS
  concentration at which an inhibition of the proliferation was already observed: 1 µmol/L
[2]
  adverse effect anestenia: 18 % of the treated patients
  adverse effect nausea: 16 % of all treated patients

Reference: patent US20070190043A1 (Biofrontera AG, priority 2003, published 2007)
